± gives the expanded uncertainty stated by the source.
Tests used:
[1] = Liquid; for mass density: 298.15 K, 101.33 kPa; for vapor or sublimation pressure: Ebulliometric method (Recirculating still)
[2] = refractive index (Na D-line) (dimensionless); conditions: 298.15 K; 101.33 kPa; Liquid; Standard Abbe refractometry

Row | SMILES | mass density [1] [kg/m3] | vapor or sublimation pressure ([1]; 353.75 K) [kPa] | vapor or sublimation pressure ([1]; 403.75 K) [kPa] | refractive index [2] | vapor or sublimation pressure ([1]; 366.55 K) [kPa] | vapor or sublimation pressure ([1]; 366.65 K) [kPa] | vapor or sublimation pressure ([1]; 427.62 K) [kPa] | vapor or sublimation pressure ([1]; 427.65 K) [kPa] | vapor or sublimation pressure ([1]; 358.35 K) [kPa] | vapor or sublimation pressure ([1]; 411.05 K) [kPa]
1 | CC(C)CCO [3-methylbutan-1-ol] | 807.6 ± 0.4 | 13 ± 0.16 | 101.3 ± 1.7 | 1.4051 ± 0.0007 | – | – | – | – | – | –
2 | CCOC(=O)[C@H](C)O [(S)-(-)-ethyl lactate] | 1028.6 ± 0.2 | – | – | 1.41057 ± 0.00072 | 13 ± 0.2 | 13 ± 0.2 | 101.3 ± 2 | 101.3 ± 2 | – | –
3 | CCCCCO [pentan-1-ol] | 811.2 ± 0.4 | – | – | 1.4077 ± 0.0007 | – | – | – | – | 13 ± 0.17 | 101.3 ± 1.8

Reference: the NIST ThermoML archive (doi:10.1021/je200111a)
